Values after ≈ are worked out from the molar mass of the structure shown.
Assays:
MTT cytotoxicity assay = type: cell-based; conditions: human, Huh-7.5 cells
Experimental: Huh7.5 cells were grown in the DMEM/F12 (2:1) medium supplemented with 10% FBS (BioSera, Cholet, France), 2 mM L-glutamine, 100 U/mL penicillin, and 100 µg/mL streptomycin in the presence of 5% CO2 at 37 °C. Cells were re-seeded every three days at a ratio of 1:3 or 1:5. Stock solutions were diluted in DMSO (BioReagent of molecular biology grade, Sigma, St. Louis, MO, USA), and the final DMSO concentration was 1%. After 24 h (30–40% monolayer), the solutions of the studied compounds diluted at different concentrations were introduced to the culture medium. After incubation at 37 °C in 5% CO2 for 48 h, a freshly prepared solution of thiazolyl blue tetrazolium bromide at a final concentration of 0.4 mg/mL was added to each well of the plate. Incubation was performed at +37 °C for 2 h. The medium containing unreacted MTT was removed via aspiration. The formed formazan dye was dissolved in 100 µL of isopropanol added to each well of the plate. The result of the analysis was evaluated using a Tecan Spark multimode microplate reader (Tecan Group Ltd., Männedorf, Switzerland) via absorbance at 544 nm.

[1] = Water solubility and stability of hydrazones and alginate microgels; type: physicochemical; conditions: preliminary studies
Experimental: The expected mass loading of microgels was 33% (5.0 mg of alginate + 2.5 mg of a sample). A solution of sodium alginate was prepared at a concentration of 3.0 mg/mL. 1.700 mL of sodium alginate solution and 3.283 mL of distilled water were added to the beaker and an equimolar copper sulfate solution (17.0 μL) was added dropwise and stirred for 30 min. Then, concentrated hydrochloric acid was dissolved in 250 μL of the polymer solution for 20 min while heating to 50 °C until the solid residue was completely dissolved. The resulting solution of I was added dropwise to the Cu^2+–alginate microgel solution and stirred for 24 h; then, the acid was neutralized with a concentrated NaOH aq. solution. The resulting solutions were purified using flow dialysis. Microgels with substances were lyophilized until a fully dry pinkish powder was obtained.

| SMILES | CC50 at 48 h (MTT cytotoxicity assay) | solubility [1] |
| --- | --- | --- |
| Oc1c(N/N=C/c2ccc(F)cc2)ccc2cccnc12 [VI, 7-(4-Fluorobenzylidenohydrazinyl)-8-hydroxyquinoline] | 45.5 ± 3.6 µM | – |
| O=[N+]([O-])c1ccc(/C=N/Nc2ccc3cccnc3c2O)cc1 [II, 7-(4-Nitrobenzylidenohydrazinyl)-8-hydroxyquinoline] | 123 ± 13.2 µM | – |
| O=[N+]([O-])c1cccc(/C=N/Nc2ccc3cccnc3c2O)c1 [III, 7-(3-Nitrobenzylidenohydrazinyl)-8-hydroxyquinoline] | 38 ± 9.1 µM | – |
| Oc1c(N/N=C/c2ccc(Br)c(Br)c2)ccc2cccnc12 [V, 7-(3,4-Dibromobenzylidenohydrazinyl)-8-hydroxyquinoline] | 120 ± 7.5 µM | – |
| COc1ccc(/C=N/Nc2ccc3cccnc3c2O)cc1 [IV, 7-(4-Methoxybenzylidenohydrazinyl)-8-hydroxyquinoline] | 47 ± 3.2 µM | – |
| Oc1c(N/N=C/c2ccccc2)ccc2cccnc12 [Compound I, 7-(2-Benzylidenohydrazinyl)-8-hydroxyquinoline] | 50.5 ± 2.5 µM | ~2300 µg/mL (≈ 8.74 mM) |
